What was measured:
Aβ42 = Aβ42 release from HEK cells stably expressing APPswe (MSD electrochemiluminescence); assay type: cell-based, Human; conditions: 4-6 h incubation with test compound, Aβ42 secreted to cell medium
Method: The level of activity of the compounds on Aβ formation was tested using the following method:
Compounds were diluted in 100% DMSO and stored at […] prior to use. Human Embryonic Kidney (HEK) cell line stably expressing APP with the Swedish mutation (APPswe) were cultured using Dulbecco's Modified Eagles medium (DMEM) supplied with […] glucose, Na-pyruvate and GlutaMAX with 10% FBS, 100 U/ml penicillin-streptomycin (PEST) respectively, 1× non-essential amino acids (NEAA), […] Hepes, 100 μg/ml Zeocine. Cells at about 80% confluence were washed with PBS, detached from culture flasks using 1× Trypsin/EDTA diluted in PBS, re-suspended in cell media and plated in 384-well poly-d-lysine coated cell culture plates at about 10000-15000 cells/well, in 25 μL cell media. Optionally, cryo-preserved cells (frozen and stored at −140° C. in 90% cell media and 10% DMSO) were thawed, washed and plated as above. Next the cells were incubated for 15-24 h at 37° C. and 5% CO2, after which cell medium was changed. Fresh medium containing test compound diluted ×200 from prepared compound plate was added to the cells before further incubation for 4-6 hours at 37° C. and 5% CO2. After incubation with test compound the amount of Aβ peptides, including Aβ42, Aβ40, Aβ39, Aβ38 and Aβ37, as well as total Aβ levels, secreted to cell medium was analyzed using the electrochemiluminescence assay technology from Meso Scale Discovery (MSD), in combination with specific antibodies raised against the different Aβ peptides. Aβ42, Aβ40 and Aβ38 antibodies were purchased from MSD and Aβ37 and Aβ39 were made in house. Total Aβ was measured using a combination of 6E10 and 4G8 anti Aβ antibodies from MSD. Potential cytotoxic effects of the compounds were usually assayed by measuring the ATP content (ViaLight) from cell lysate.

Notch = assay: Release and translocation of Notch intracellular domain into the nucleus, HEK/AENotch cells (NICD immunostaining, ImageXpress); assay type: cell-based, Human; conditions: 3 μM Lactacystin, 4-6 h incubation, nucleus/cytosol NICD fluorescence ratio
Method: The level of activity of the compounds on release and translocation of Notch intracellular domain into the cell nucleus was tested using the following method:
Compounds were diluted in 100% DMSO and stored at […] prior to use. Human Embryonic Kidney cell line overexpressing Notchl-E-human-myc construct (referred to as HEK/AENotch) were cultured in T75 cm^2 or T225 cm^2 cell culture flasks using Dulbecco's Modified Eagles medium (DMEM) supplemented with […] glucose, Na-pyruvate and GlutaMAX with 10% FBS, 100 U/ml penicillin-streptomycin (PEST) respectively, 1× non-essential amino acids (NEAA), […] Hepes and 100 μg/ml Hygromycin. Cells at about 80% confluence were washed with PBS, detached from the flask bottom using 1× Trypsin/EDTA diluted in PBS, re-suspended in cell media and plated in 384-well plates at about 10000 cells/well, in 25 μL cell media. Optionally, cryo-preserved cells (frozen and stored at −140° C. in 90% cell media and 10% DMSO) were thawed, washed and plated as above. Next the cells were incubated for 15-24 h at 37° C. and 5% CO2, after which cell medium was replaced with fresh medium containing 3 μM Lactacystin and test compound diluted ×200 from prepared compound plate giving 0.5% final DMSO concentration, and the highest compound concentration typically 25 μM. Cells were then incubated 4-6 h with test compound before being fixed, washed and immunostained with NICD antibody (rabbit Notch 1 (C-20)). Image acquisition of cytosolic/membrane and nuclear fluorescence as well as subsequent analysis of the nucleus and cytosolic fluorescence ratio was carried out using ImageXpress. Potential cytotoxic effects of the compounds were usually assayed by analysis of nucleus area or cell number.

[1] = Homo sapiens, HEK293, HEK cells expressing APPswe

SMILES | IC50 (Aβ42; HEK cells expressing APPswe) | IC50 (Aβ42; [1]) | IC50 (Notch) | IC50 (Notch; Homo sapiens)
COc1nc(Nc2ccc3c(n2)O[C@H](c2ccc(F)cn2)CN(C)C3C)ccc1-c1cnn(C)c1 (single isomer, unassigned) [Example 50] | 60 nM |  | 2.31 µM | 
COc1nc(Nc2ccc3c(n2)OC(CC(F)(F)F)CN(C)C3)ccc1-c1ccnc(C)c1 (stereo not shown) [Example 8, (2-Methoxy-2′-methyl-[3,4′]bipyridinyl-6-yl)-[6-methyl-8-(2,2,2-trifluoro-ethyl)-5,6,7,8-tetrahydro-9-oxa-1,6-diaza-benzocyclohepten-2-yl]-amine] |  | 5 nM |  | 3.25 µM
Cc1ncn(-c2ccc(Nc3ccc4c(n3)OC(c3cccc(Cl)c3)CN(C)C4)nc2)n1 (stereo not shown) [Example 23, 2-(3-Chlorophenyl)-4-methyl-N-(5-(3-methyl-1H-1,2,4-triazol-1-yl)pyridin-2-yl)-2,3,4,5-tetrahydropyrido[3,2-f][1,4]oxazepin-8-amine] |  | 55 nM |  | > 2.5 µM
COc1nc(Nc2ccc3c(n2)OC(c2ncc(C)s2)CN(C)C3)ccc1-n1cnc(C)c1 (single isomer, unassigned; (+)) [Example 66, (+)-N-(6-Methoxy-5-(4-methyl-1H-imidazol-1-yl)pyridin-2-yl)-4-methyl-2-(5-methylthiazol-2-yl)-2,3,4,5-tetrahydropyrido[3,2-f][1,4]oxazepin-8-amine] | 38 nM |  | > 25 µM | 
COc1nc(Nc2ccc3c(n2)OC(CC(F)(F)F)CN(C)C3)ccc1-c1cnn(C)c1 (single isomer, unassigned; (-)) [Example 5, (−)-N-(6-Methoxy-5-(1-methyl-1H-pyrazol-4-yl)pyridin-2-yl)-4-methyl-2-(2,2,2-trifluoroethyl)-2,3,4,5-tetrahydropyrido[3,2-f][1,4]oxazepin-8-amine] | 21 nM |  | > 25 µM | 
COc1nc(Nc2ccc3c(n2)OC(C2CC2)CN(C)C3C)ccc1-c1cnn(C)c1 (single isomer, unassigned) [Example 20, 2-Cyclopropyl-N-(6-methoxy-5-(1-methyl-1H-pyrazol-4-yl)pyridin-2-yl)-4,5-dimethyl-2,3,4,5-tetrahydropyrido[3,2-f][1,4]oxazepin-8-amine] | 91 nM |  | > 7.9 µM | 

The remaining compounds from weak to strong by IC50 (Aβ42; HEK cells expressing APPswe), led by results:

IC50 (Aβ42; HEK cells expressing APPswe) | IC50 (Aβ42; [1]) | SMILES | IC50 (Notch) | IC50 (Notch; Homo sapiens)
18 nM |  | COc1nc(Nc2ccc3c(n2)OC(CCC(F)(F)F)CN(C)C3)ccc1-c1cnn(C)c1 (single isomer, unassigned; (-)) [Example 58, (−)-N-[6-Methoxy-5-(1-methylpyrazol-4-yl)-2-pyridyl]-4-methyl-2-(3,3,3-trifluoropropyl)-3,5-dihydro-2H-pyrido[3,2-f][1,4]oxazepin-8-amine] | > 25 µM | 
16 nM |  | COc1nc(Nc2ccc3c(n2)OC(CC(F)(F)F)CN(C)C3C)ccc1-c1cnn(C)c1 (single isomer, unassigned) [Example 34, N-(6-Methoxy-5-(1-methyl-1H-pyrazol-4-yl)pyridin-2-yl)-4,5-dimethyl-2-(2,2,2-trifluoroethyl)-2,3,4,5-tetrahydropyrido[3,2-f][1,4]oxazepin-8-amine] | > 25 µM | 
14 nM |  | COc1nc(Nc2ccc3c(n2)OC(c2nc(C)cs2)CN(C)C3)ccc1-c1cnn(C)c1 (single isomer, unassigned; (-)) [Example 11, (−)-N-(6-Methoxy-5-(1-methyl-1H-pyrazol-4-yl)pyridin-2-yl)-4-methyl-2-(4-methylthiazol-2-yl)-2,3,4,5-tetrahydropyrido[3,2-f][1,4]oxazepin-8-amine] |  | 1.44 µM
11 nM |  | COc1nc(Nc2ccc3c(n2)O[C@H](c2ccc(F)cn2)CN(C)C3C)ccc1-n1cnc(C)c1 (single isomer, unassigned; (-)) [Example 53] | > 7.9 µM | 
9 nM |  | COc1nc(Nc2ccc3c(n2)OC(CC(CF)CF)CN(C)C3)ccc1-n1cnc(C)c1 (single isomer, unassigned; (-)) [Example 68, (−)-[8-(3-Fluoro-2-fluoromethyl-propyl)-6-methyl-5,6,7,8-tetrahydro-9-oxa-1,6-diaza-benzocyclohepten-2-yl]-[6-methoxy-5-(4-methyl-imidazol-1-yl)-pyridin-2-yl]-amine] | > 25 µM | 

Reference: patent publication US20120122843A1, “Compounds and Their Use for Treatment of Amyloid Beta-Related Diseases” (ASTRAZENECA AB, priority 2010, published 2012)
